The target in this experiment is T1, recombinant human vWF-A1 domain (Homo sapiens, UniProt P07359).
T1 construct: whole blood drawn from voluntary donors; made in house; host or cells: E. coli (vWF-A1); washed platelets from human donor blood (GPIb, endogenous)
The experiment can be described thus: Static human platelet adhesion to recombinant human vWF-A1 domain. Format: cell-based. On the procedure: The activity of compounds of the formula I can be shown by procedures known in the art, for example by determining their inhibition of the binding of platelets to vWF A1 domain in an appropriate assay. To this end, assay plates can be coated with vWF-A1 domain. […] Then fluorescence-labeled thrombocytes are added and incubated for 90 minutes. In a complex washing procedure all non-bound thrombocytes are removed and the plates are measured, for example in a laser-based reader Acumen Explorer or a bulk reader like Spectramax. […] To assess the effect of compounds on the interaction of the GPIb complex on platelets with vWF, an assay system was used measuring binding of human platelets to recombinant human vWF-A1 domain under static conditions in the presence and absence of the compounds. […] Platelet rich plasma was carefully removed, transferred to a fresh container and spun down for 15 min at 120 g. Platelet rich plasma was carefully transferred again to fresh containers, PGE1 (0.5 μg/ml, Sigma) was added and the suspension was allowed to rest for 5 min. This was followed by another centrifugation step for 15 min at 360 g. The supernatant was discarded and the cell pellets were carefully resuspended in tyrode buffer (NaCl, 137 mM (Sigma S-3014); KCl, 2.7 mM (Sigma P-9541); NaHCO3,12 mM ([…] 31437); NaH2PO4×2H2O, 0.36 mM (Merck 6345); […] After 5 min of resting the suspension was spun down for 15 min at 300 g. The supernatant was discarded and the pellets were carefully resuspended in TBS buffer (Tris-HCl, 50 mM (Fluka 93371); NaCl, 120 mM (Sigma S-3014); KCl, 2.7 mM (Sigma P-9541); CaCl2, 0.05 mM (Sigma C-3306); MgCl2×6 H2O, 2 mM (Sigma M-2670); […] The platelet count was adjusted to 2×10^5 cells/μl, and the suspensions from individual donors were pooled at this stage. The platelets were allowed to rest for 30 min at room temperature before calcein AM (2.5 μM per 2×10^5 cells/μl (Molecular Probes C-3099)) was added. This was followed by 15 min incubation in the dark. Cells were diluted to 5×10^4 cells/μl and ReoPro (3 μg/ml (Centocor B. V., Leiden, N L)) was added, followed by a 10 min incubation period in the dark before adding the platelets to the assay plates. 96 well plates (Greiner hb, black, clear bottom, F, 655097) were coated with human recombinant vWF-A1 domain (1.5 μg/well, AA 475-706, expressed in E. coli) in Tris buffer (pH 7.4; Tris-HCl, 25 mM; NaCl, 150 mM) and incubated for 1 h at room temperature. After washing the wells 3× with TBS, blocking buffer (TBS with 5% BSA) was added followed by an incubation for 1 h. The wells were washed again 3× with TBS before 200 μl TBS were added to each well, preventing them from drying out. TBS was flicked out and serial dilutions of the test compound were added. The washed and calcein AM labeled thrombocytes were added to the wells (2.5×10^6 cells/well). Following an adhesion period of 1.5 h in the dark the wells were washed 3× with TBS. Measurement of fluorescence per well was performed in a SpectraMax M5 reader (Molecular Devices). From the raw data % inhibition and IC50 values were calculated.

The mark [1] stands for this setting: washed calcein AM labeled human platelets, static conditions, 1.5 h adhesion, read-out: Activity (IC50 for inhibition of the binding of platelets to vWF A1 domain).

Molecules are shown by their SMILES. Where two headings read alike, the source gives them in different places. Starred links: 1 amine or outer side, 2 acyl side, 3 side chain; linkers in the order of their positions; H or OH if unused. Positions of bridges follow the written chain, without caps; N, C: chain ends. Non-standard residues stand in square brackets, D forms with d. Residues, ends and D or L forms follow the SMILES beside them. ξ: configuration not given here. X1 = CSCC[C@H](NN[C@@H](CCCNC(=N)N)C(=O)C(=O)[C@H](CCC(=O)O)N[*:2])C(=O)[*:1]; X3 = O=C(Cc1ccc(CN[*:1])cc1)[*:2]; tBuAla = CC(C)(C)C[C@H](N)C(=O)O; Chg = N[C@H](C(=O)O)C1CCCCC1; Nva = CCC[C@H](N)C(=O)O; Dap = NC[C@H](N)C(=O)O; Aoc = NCCCCCCCC(=O)O; Ahp = NCCCCCCC(=O)O; GABA = NCCCC(=O)O; ξA = CC(N)C(=O)O

T1 sequence (P07359 17-652): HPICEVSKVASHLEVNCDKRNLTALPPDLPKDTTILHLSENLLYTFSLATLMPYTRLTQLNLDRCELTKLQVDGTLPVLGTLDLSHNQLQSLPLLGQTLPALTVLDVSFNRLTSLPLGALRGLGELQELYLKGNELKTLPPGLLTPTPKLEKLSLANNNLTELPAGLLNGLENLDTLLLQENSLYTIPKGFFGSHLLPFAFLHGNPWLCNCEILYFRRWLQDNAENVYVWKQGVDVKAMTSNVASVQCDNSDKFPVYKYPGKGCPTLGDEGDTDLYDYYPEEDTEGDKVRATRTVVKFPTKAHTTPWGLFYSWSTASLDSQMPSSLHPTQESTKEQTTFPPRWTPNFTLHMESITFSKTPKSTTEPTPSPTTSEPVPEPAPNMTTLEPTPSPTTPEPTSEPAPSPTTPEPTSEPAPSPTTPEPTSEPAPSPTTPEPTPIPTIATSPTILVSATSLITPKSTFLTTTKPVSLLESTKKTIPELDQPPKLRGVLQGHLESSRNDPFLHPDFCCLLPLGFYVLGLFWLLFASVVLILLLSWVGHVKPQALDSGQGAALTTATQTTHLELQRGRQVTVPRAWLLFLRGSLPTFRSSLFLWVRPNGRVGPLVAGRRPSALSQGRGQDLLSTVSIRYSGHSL
T1 sequence (P13224 26-206 partner): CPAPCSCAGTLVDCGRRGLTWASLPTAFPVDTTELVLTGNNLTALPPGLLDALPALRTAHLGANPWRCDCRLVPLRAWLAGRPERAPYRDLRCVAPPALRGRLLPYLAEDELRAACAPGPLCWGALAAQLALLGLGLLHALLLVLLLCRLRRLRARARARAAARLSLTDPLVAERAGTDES
T1 sequence (P14770 17-177 partner): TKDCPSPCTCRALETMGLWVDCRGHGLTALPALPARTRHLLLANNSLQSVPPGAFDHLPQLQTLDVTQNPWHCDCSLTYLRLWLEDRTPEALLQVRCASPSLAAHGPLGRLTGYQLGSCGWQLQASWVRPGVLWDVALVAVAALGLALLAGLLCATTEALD

For `CSCC[C@@H]1NC(=O)[C@H](CCCNC(=N)N)NC(=O)[C@H](CCC(=O)O)NC(=O)[C@H]([C@@H](C)O)NC(=O)CCCCCCNC(=O)[C@H](CC(C)C)NC(=O)[C@H](CC(N)=O)NC(=O)[C@H](Cc2c[nH]cn2)NC(=O)[C@H](CC(C)C)NC(=O)[C@H](CCC(N)=O)NC1=O` [Example 55, Cyclo[Leu-His-Asn-Leu-NH—(CH2)6—CO-Thr-Glu-Arg-Met-Gln]] (cyclo([Ahp]TERMQLHNL)), under setting [1], the IC50 (commonly the point on the concentration scale where inhibition reaches its midpoint) is 1 to 10 µM. Consider `CSCC[C@@H]1NC(=O)[C@H](CCCNC(=N)N)NC(=O)[C@H](CCC(=O)O)NC(=O)[C@H]([C@@H](C)O)NC(=O)CCCCCCCNC(=O)[C@H](CC(C)C)NC(=O)[C@H](CC(N)=O)NC(=O)[C@H](Cc2c[nH]cn2)NC(=O)[C@H](CC(C)C)NC(=O)[C@H](C)NC1=O` [Example 6, Cyclo[Leu-His-Asn-Leu-NH—(CH2)7—CO-Thr-Glu-Arg-Met-Ala]] (cyclo(ALHNL[Aoc]TERM)), for which the IC50 under setting [1] is under 1 µM. Consider `CSCC[C@@H]1NC(=O)[C@H](CCCNC(=N)N)NC(=O)[C@H](CCC(=O)O)NC(=O)[C@H](Cc2c[nH]cn2)NC(=O)CCCCCCNC(=O)[C@H](CC(C)C)NC(=O)[C@H](CC(N)=O)NC(=O)[C@H](Cc2c[nH]cn2)NC(=O)[C@H](CC(C)C)NC(=O)[C@H](C)NC1=O` [Example 21, Cyclo[Leu-His-Asn-Leu-NH—(CH2)6—CO-His-Glu-Arg-Met-Ala]] (cyclo(ALHNL[Ahp]HERM)), for which the IC50 under setting [1] was 1 to 10 µM. Regarding `CC[C@H](C)[C@@H]1NC(=O)[C@H](C)NC(=O)[C@H](CCSC)NC(=O)[C@H](CCCNC(=N)N)NC(=O)[C@H](CCC(=O)O)NC(=O)[C@H]([C@@H](C)O)NC(=O)CCCCCCNC(=O)[C@H](CC(C)C)NC(=O)[C@H](CC(N)=O)NC(=O)[C@H](Cc2c[nH]cn2)NC1=O` [Example 14, Cyclo[Ile-His-Asn-Leu-NH—(CH2)6—CO-Thr-Glu-Arg-Met-Ala]] (cyclo(AIHNL[Ahp]TERM)), under setting [1], the IC50 was 1 to 10 µM.

Consider `CSCC[C@@H]1NN[C@@H](CCCNC(=N)N)C(=O)C(=O)[C@H](CCC(=O)O)NC(=O)[C@H]([C@@H](C)O)NC(=O)CCCCCCNC(=O)[C@H](CC(C)C)NC(=O)[C@H](CC(N)=O)NC(=O)[C@H](Cc2cnc[nH]2)NC(=O)[C@H](CC(C)C)NC(=O)C(C)NC1=O` (stereo partly drawn) [Example 1, Cyclo[Leu-His-Asn-Leu-NH—(CH2)6—CO-Thr-Glu-Arg-Met-Ala]] ([ξA]LHNL[Ahp]T; linker N-C via X1), for which, under setting [1], the IC50 was under 1 µM. Same read-out and setting: the value for `CSCC[C@@H]1NC(=O)[C@H](CCCNC(=N)N)NC(=O)[C@H](CCC(=O)O)NC(=O)[C@H]([C@@H](C)O)NC(=O)[C@@H](NC(C)=O)CCCCNC(=O)[C@H](CC(C)C)NC(=O)[C@H](CC(N)=O)NC(=O)[C@H](Cc2c[nH]cn2)NC(=O)[C@H](CC(C)C)NC(=O)[C@H](C)NC1=O` [Example 5, Cyclo[Leu-His-Asn-Leu-NH-X4-X3-X2-X1-CO-Thr-Glu-Arg-Met-Ala]] (Ac-KTERMALHNL; lactam 1-C) was 1 to 10 µM. As to `CSCC[C@@H]1NC(=O)[C@H](CCCNC(=N)N)NC(=O)[C@H](CCC(=O)O)NC(=O)[C@H]([C@@H](C)O)NC(=O)CCCNC(=O)[C@H](CN)NC(=O)[C@H](CC(C)C)NC(=O)[C@H](CC(N)=O)NC(=O)[C@H](Cc2c[nH]cn2)NC(=O)[C@H](CC(C)C)NC(=O)[C@H](C)NC1=O` [Example 49, Cyclo[Leu-His-Asn-Leu-Dpr-NH—(CH2)3—CO-Thr-Glu-Arg-Met-Ala]] (cyclo(ALHNL[Dap][GABA]TERM)), under setting [1], the IC50 was 1 to 10 µM.

Take `CSCC[C@@H]1NC(=O)[C@H](CCCCN)NC(=O)[C@H](CCC(=O)O)NC(=O)[C@H]([C@@H](C)O)NC(=O)CCCCCCNC(=O)[C@H](CC(C)C)NC(=O)[C@H](CC(N)=O)NC(=O)[C@H](Cc2c[nH]cn2)NC(=O)[C@H](CC(C)C)NC(=O)[C@H](C)NC1=O` [Example 7, Cyclo[Leu-His-Asn-Leu-NH—(CH2)6—CO-Thr-Glu-Lys-Met-Ala]] (cyclo(ALHNL[Ahp]TEKM)): the concentration for half-maximal inhibition (IC50) under setting [1] was 1 to 10 µM. With `CSCC[C@@H]1NC(=O)[C@H](CCCNC(=N)N)NC(=O)[C@H](CCC(=O)O)NC(=O)[C@H]([C@@H](C)O)NC(=O)CCCCCCNC(=O)[C@H](CC(C)C)NC(=O)[C@H](CC(N)=O)NC(=O)[C@H](Cc2c[nH]cn2)NC(=O)[C@H](CC(C)(C)C)NC(=O)[C@H](C)NC1=O` [Example 36, Cyclo[Npg-His-Asn-Leu-NH—(CH2)6—CO-Thr-Glu-Arg-Met-Ala]] (cyclo(A[tBuAla]HNL[Ahp]TERM)), the IC50 under setting [1] is under 1 µM. As to `CCC[C@@H]1NC(=O)[C@H](C)NC(=O)[C@H](CCSC)NC(=O)[C@H](CCCNC(=N)N)NC(=O)[C@H](CCC(=O)O)NC(=O)[C@H]([C@@H](C)O)NC(=O)CCCCCCNC(=O)[C@H](CC(C)C)NC(=O)[C@H](CC(N)=O)NC(=O)[C@H](Cc2c[nH]cn2)NC1=O` [Example 19, Cyclo[Nva-His-Asn-Leu-NH—(CH2)6—CO-Thr-Glu-Arg-Met-Ala]] (cyclo(A[Nva]HNL[Ahp]TERM)), the IC50 under setting [1] is under 1 µM.

Consider `CSCC[C@@H]1NC(=O)[C@H](CCCNC(=N)N)NC(=O)[C@H](CCC(=O)O)NC(=O)[C@H]([C@@H](C)O)NC(=O)CCCCCCNC(=O)[C@H](CC(C)C)NC(=O)[C@H](CC(N)=O)NC(=O)[C@H](Cc2c[nH]cn2)NC(=O)[C@H](C2CCCCC2)NC(=O)[C@H](C)NC1=O` [Example 20, Cyclo[Chg-His-Asn-Leu-NH—(CH2)6—CO-Thr-Glu-Arg-Met-Ala]] (cyclo(A[Chg]HNL[Ahp]TERM)), for which, under setting [1], the IC50 was 1 to 10 µM. With `CC(C)C[C@@H]1NC(=O)[C@H](C)NC(=O)[C@H](C2CCCCC2)NC(=O)[C@H](CCCNC(=N)N)NC(=O)[C@H](CCC(=O)O)NC(=O)[C@H]([C@@H](C)O)NC(=O)CCCCCCNC(=O)[C@H](CC(C)C)NC(=O)[C@H](CC(N)=O)NC(=O)[C@H](Cc2c[nH]cn2)NC1=O` [Example 39, Cyclo[Leu-His-Asn-Leu-NH—(CH2)6—CO-Thr-Glu-Arg-Chg-Ala]] (cyclo(ALHNL[Ahp]TER[Chg])), under setting [1], the IC50 is 1 to 10 µM. Still for that read-out and setting: the value for `CSCC[C@@H]1NC(=O)[C@H](CCCNC(=N)N)NC(=O)[C@H](CCC(=O)O)NC(=O)[C@H]([C@@H](C)O)NC(=O)[C@H](CC(N)=O)NC(=O)CCCNC(=O)[C@H](CC(C)C)NC(=O)[C@H](CC(N)=O)NC(=O)[C@H](Cc2c[nH]cn2)NC(=O)[C@H](CC(C)C)NC(=O)[C@H](C)NC1=O` [Example 50, Cyclo[Leu-His-Asn-Leu-NH—(CH2)3—CO-Asn-Thr-Glu-Arg-Met-Ala]] (cyclo(ALHNL[GABA]NTERM)) was 1 to 10 µM; that for `CC(C)C[C@@H]1NC(=O)[C@H](C)NC(=O)[C@H](C)NC(=O)[C@H](CCCNC(=N)N)NC(=O)[C@H](CCC(=O)O)NC(=O)[C@H]([C@@H](C)O)NC(=O)CCCCCCNC(=O)[C@H](CC(C)C)NC(=O)[C@H](CC(N)=O)NC(=O)[C@H](Cc2c[nH]cn2)NC1=O` [Example 40, Cyclo[Leu-His-Asn-Leu-NH—(CH2)6—CO-Thr-Glu-Arg-Ala-Ala]] (cyclo(AALHNL[Ahp]TER)) was under 1 µM; that for `CC(C)C[C@@H]1NC(=O)[C@H](C)NC(=O)[C@H](CCC(N)=O)NC(=O)[C@H](CCCNC(=N)N)NC(=O)[C@H](CCC(=O)O)NC(=O)[C@H]([C@@H](C)O)NC(=O)CCCCCCNC(=O)[C@H](CC(C)C)NC(=O)[C@H](CC(N)=O)NC(=O)[C@H](Cc2c[nH]cn2)NC1=O` [Example 41, Cyclo[Leu-His-Asn-Leu-NH—(CH2)6—CO-Thr-Glu-Arg-Gln-Ala]] (cyclo(ALHNL[Ahp]TERQ)) was under 1 µM. Take `CSCC[C@@H]1NC(=O)[C@H](CCCNC(=N)N)NC(=O)[C@H](CCC(=O)O)NC(=O)[C@H]([C@@H](C)O)NC(=O)Cc2ccc(cc2)CNC(=O)[C@H](CC(C)C)NC(=O)[C@H](CC(N)=O)NC(=O)[C@H](Cc2c[nH]cn2)NC(=O)[C@H](CC(C)C)NC(=O)[C@H](C)NC1=O` [Example 3, Cyclo[Leu-His-Asn-Leu-NH-X4-X3-X2-X1-CO-Thr-Glu-Arg-Met-Ala]] (cyclo(ALHNL[X3]TERM)): the IC50 fell in the range of 1 to 10 µM.

Source of the values: patent publication US9073975B2, “Cyclic peptides, their preparation and their use as inhibitors of the platelet adhesion” (SANOFI, priority 2010, dated 2015).
